Measured values published in ChEMBL document CHEMBL5241135, “Activity of N-phenylbenzamide analogs against the neglected disease pathogen, Schistosoma mansoni” (Bioorg Med Chem Lett, 2023).
Calls of active or inactive are those of the source. No cut-off for these calls is given here.

Tests used:
Schistosoma mansoni [1] = experiment: Antischistosomal activity against adult stage of Schistosoma mansoni assessed as uncoordinated and slowed motility at 5 uM measured after 5 hrs; format: functional, organism-based
Schistosoma mansoni [2] = experiment: Antischistosomal activity against adult stage of Schistosoma mansoni assessed as uncoordinated and slowed motility at 5 uM measured after 24 hrs; format: functional, organism-based
Schistosoma mansoni [3] = experiment: Antischistosomal activity against adult stage of Schistosoma mansoni assessed as uncoordinated and slowed motility at 5 uM measured after 48 hrs; format: functional, organism-based
Schistosoma mansoni [4] = experiment: Antischistosomal activity against adult stage of Schistosoma mansoni assessed as degenerative and lethal changes at 5 uM measured after 5 hrs; format: functional, organism-based
Schistosoma mansoni [5] = experiment: Antischistosomal activity against adult stage of Schistosoma mansoni assessed as degenerative and lethal changes at 5 uM measured after 24 hrs; format: functional, organism-based
Schistosoma mansoni [6] = experiment: Antischistosomal activity against adult stage of Schistosoma mansoni assessed as degenerative and lethal changes at 5 uM measured after 48 hrs; format: functional, organism-based
HEK293 = experiment: Cytotoxicity against human HEK293 cells measured after 48 hrs; format: toxicity, cell-based; details: hek293, 48 h
Schistosoma mansoni [7] = experiment: Antischistosomal activity against adult stage of Schistosoma mansoni assessed as uncoordinated and slowed motility at 5 uM measured after 1 hr; format: functional, organism-based
Schistosoma mansoni [8] = experiment: Antischistosomal activity against adult stage of Schistosoma mansoni assessed as degenerative and lethal changes at 5 uM measured after 1 hr; format: functional, organism-based
Schistosoma mansoni [9] = experiment: Antischistosomal activity against adult stage of Schistosoma mansoni assessed as reduction in worm motility measured after 24 hrs; format: functional, organism-based
[10] = Selectivity index, ratio of CC50 for human HEK293 cells to EC50 for antischistosomal activity against adult stage of Schistosoma mansoni; format: toxicity; details: read-out: Ratio CC50/EC50

| SMILES | Activity (Schistosoma mansoni [1]) | Activity (Schistosoma mansoni [2]) | Activity (Schistosoma mansoni [3]) | Activity (Schistosoma mansoni [4]) | Activity (Schistosoma mansoni [5]) | Activity (Schistosoma mansoni [6]) | CC50 (HEK293) [µM] | Activity (Schistosoma mansoni [7]) | Activity (Schistosoma mansoni [8]) | EC50 (Schistosoma mansoni [9]) [µM] | selectivity ratio [10] |
| --- | --- | --- | --- | --- | --- | --- | --- | --- | --- | --- | --- |
| O=C(Nc1cccc(C(F)(F)F)c1)c1ccc(F)cc1 | inactive | inactive | inactive | inactive | inactive | inactive | > 20 |  |  |  |  |
| COc1ccc(NC(=O)c2ccc(C(F)(F)F)cc2)cc1OC | inactive | inactive | inactive | inactive | inactive | inactive | > 20 | inactive | inactive |  |  |
| O=C(Nc1ccc(Cl)c(Cl)c1)c1ccc(F)cc1 | Active | Active | Active |  |  |  | > 20 | Active |  |  |  |
| COc1ccc(NC(=O)c2ccccc2)cc1OC | inactive | inactive | inactive | inactive | inactive | inactive | > 20 | inactive | inactive |  |  |
| O=C(Nc1ccc(F)c(F)c1)c1ccc(F)cc1 |  | inactive | inactive |  | inactive | inactive | > 20 |  |  |  |  |
| Cc1ccc(NC(=O)c2ccccc2)cc1C | inactive | inactive | inactive | inactive | inactive | inactive | > 20 | inactive | inactive |  |  |
| O=C(Nc1ccccc1)c1ccc(C(F)(F)F)cc1 | inactive | inactive | inactive | inactive | inactive | inactive | > 20 | inactive | inactive |  |  |
| COc1ccc(NC(=O)c2ccc(C#N)cc2)cc1OC | inactive | inactive | inactive | inactive | inactive | inactive | > 20 | inactive | inactive |  |  |
| COc1ccc(NC(=O)c2cc(Cl)ccc2O)cc1OC |  |  |  |  |  |  | > 20 | inactive | inactive |  |  |
| O=C(Nc1ccc(Cl)c(Cl)c1)c1ccc(C(F)(F)F)cc1 |  |  |  | Active | Active | Active |  |  | Active | 0.08 | 123 |
| O=C(Nc1ccc(F)c(F)c1)c1ccccc1 | inactive | inactive | inactive | inactive | inactive | inactive | > 20 | inactive | inactive |  |  |
| Cc1ccc(NC(=O)c2ccc(C#N)cc2)cc1C | inactive | inactive | inactive | inactive | inactive | inactive | > 20 | inactive | inactive |  |  |
| O=C(Nc1ccc(Cl)c(Cl)c1)c1ccccc1 | Active | Active | Active |  |  |  | > 20 | Active |  |  |  |
| Cc1ccc(NC(=O)c2ccc(F)cc2)cc1C | inactive | inactive | inactive | inactive | inactive | inactive | > 20 | inactive | inactive |  |  |
| N#Cc1ccc(C(=O)Nc2cccc(C(F)(F)F)c2)cc1 | inactive | inactive | inactive | inactive | inactive | inactive | > 20 | inactive | inactive |  |  |
| O=C(Nc1ccc(C(F)(F)F)cc1)c1ccc(C(F)(F)F)cc1 |  | Active |  |  |  | Active | > 20 |  |  | 1.25 | > 16 |
| Cc1ccc(NC(=O)c2ccc(C(F)(F)F)cc2)cc1C | Active |  |  |  | Active | Active | > 20 | Active |  | 3.7 | > 5.4 |
| O=C(Nc1ccc(Cl)nn1)c1cccc(F)c1 | inactive | inactive | inactive | inactive | inactive | inactive | > 20 | inactive | inactive |  |  |
| N#Cc1ccc(C(=O)Nc2ccccc2)cc1 | inactive | inactive | inactive | inactive | inactive | inactive | > 20 | inactive | inactive |  |  |
| O=C(Nc1ccc(F)c(F)c1)c1ccc(C(F)(F)F)cc1 | Active | Active |  |  |  | Active | 14.6 | Active |  | 3.8 | 3.84 |
| COc1ccc(NC(=O)c2ccc(F)cc2)cc1OC | inactive | inactive | inactive | inactive | inactive | inactive | > 20 |  |  |  |  |
| O=C(Nc1cccc(C(F)(F)F)c1)c1ccccc1 |  | inactive | inactive |  | inactive | inactive | > 20 |  |  |  |  |
| N#Cc1ccc(C(=O)Nc2ccc(F)c(F)c2)cc1 | inactive | inactive | inactive | inactive | inactive | inactive | > 20 | inactive | inactive |  |  |
| O=C(Nc1cccc(C(F)(F)F)c1)c1ccc(C(F)(F)F)cc1 |  |  |  | Active | Active | Active |  |  | Active | 1.1 | 10.1 |
| O=C(Nc1ccccc1)c1ccc(F)cc1 | inactive | inactive | inactive | inactive | inactive | inactive | > 20 | inactive | inactive |  |  |
